The source of these data is patent publication EP0090510A2, “O-carbamoyl salicylates and their preparation” (Council of Scientific and Industrial Research, priority 1983, dated 1983).

Holding throughout (format): in vivo
Common to all, as to settings: Dose : 200 mg/kg

Assay [1] can be described thus: Analgesic protection, writhing test. The arrangement: unit not given here.
A short description of assay [2]: Anti-inflammatory, granuloma test.
Assay [3] can be described thus: Anti-inflammatory, edema test.

Take `NC(=O)Oc1ccccc1C(=O)Oc1ccccc1` [compound 4]: the “Analgesic protection Writhing” value in assay [1] came to 72.00. Besides, the “Anti-inflammatory %Inhibition Granuloma” value in assay [2] was 57.65%. Further, the “Anti-inflammatory %Inhibition Raw edema” value in assay [3] was found to be 93.19%.
In the same order, the values of `NC(=O)Oc1ccccc1C(=O)Oc1ccccc1Cl` [compound 5] are 70.00, 35.06% and 35.00%.
As for `NC(=O)Oc1ccccc1C(=O)Oc1ccc(Cl)cc1` [compound 6], the “Analgesic protection Writhing” value in assay [1] came to 83.00. Further, the “Anti-inflammatory %Inhibition Granuloma” value in assay [2] is 41.45%. In addition, the “Anti-inflammatory %Inhibition Raw edema” value in assay [3] worked out at 37.88%.
For `NC(=O)Oc1ccccc1C(=O)Oc1ccc(Cl)cc1Cl` [compound 7], in that order: 76.00, 34.40% and 28.77%.
For the compound `Cc1cccc(OC(=O)c2ccccc2OC(N)=O)c1` [compound 8], the “Analgesic protection Writhing” value in assay [1] was 84.00. For the same compound, the “Anti-inflammatory %Inhibition Granuloma” value in assay [2] is given as 33.25%. Also, the “Anti-inflammatory %Inhibition Raw edema” value in assay [3] is reported as 48.50%.
With `Cc1cc(OC(=O)c2ccccc2OC(N)=O)ccc1Cl` [compound 9], the “Analgesic protection Writhing” value in assay [1] is 68.00. For the same compound, the “Anti-inflammatory %Inhibition Granuloma” value in assay [2] was 24.04%. Further, in assay [3], the “Anti-inflammatory %Inhibition Raw edema” value amounted to 28.90%.
With `CCCCCCCCCCCCCCCc1cccc(OC(=O)c2ccccc2OC(N)=O)c1` [compound 10], the “Analgesic protection Writhing” value in assay [1] came to 45.00. In assay [2], the “Anti-inflammatory %Inhibition Granuloma” value turned out to be 33.55%. Further, the “Anti-inflammatory %Inhibition Raw edema” value in assay [3] amounted to 12.10%.
As to “O-Carbamoyl (3-pentadecylphenyl) salicylate [Sl. No. 10]”, in assay [1], the “Analgesic protection Writhing” value is on record as 67.00. For the same compound, the “Anti-inflammatory %Inhibition Granuloma” value in assay [2] is reported as 19.79%. In addition, the “Anti-inflammatory %Inhibition Raw edema” value in assay [3] was 34.85%.
For O-Carbamoyl ethylsalicylate [Sl. No. 2], in that order: 69.78, 46.32% and 76.23%.
For “O-Carbamoyl phenylsalicylate [Sl. No. 4]”, in that order: 95.00, 28.63% and 34.86%.
